Columns and labels:
[1] = In vivo pharmacokinetics of Pt after intravenous injection (ICP-MS); set-up: species or system Wistar rats; conditions: Pt in rats, equivalent CAR dose 1.5 mg·kg^−1
Description: To conduct the pharmacokinetic tests, six female Wistar rats (Harlan, Israel, 200 ± 20 g) were randomly administered into two groups primarily. The CAR solution was prepared by dissolving CAR in 5% glucose solution, and the PEG-CAR-C16 polymer micelles were prepared by hydrating the thin film using 5% glucose solution during the micelle formation. Then CAR and PEG-CAR-C16 polymer micelles (the equivalent CAR does was 1.5 mg·kg^−1) were injected intravenously. After collected from the treated […] within a specified time point, the blood samples were centrifuged at 3000 rpm for 10 min, and then the centrifuged samples were frozen at −20 °C for further use. All the blood samples were processed by microwave digestion and then the Pt concentration was examined by using inductively coupled plasma mass spectrometry (ICP-MS). The representative pharmacokinetic parameters were calculated by DAS2.0.

H460 tumor = test: In vivo antitumor experiment in H460 tumor-bearing nude mice; conditions: tail vein injection twice a week for two weeks, CAR 0.75 and 1.5 mg·kg^−1, equivalent PEG-CAR-C16 5.5 and 11.0 mg·kg^−1
Description: The female nude mice models (5–6 weeks old, 18–22 g) used in the experiment were purchased from Unilever (London, UK), and the experiment was conducted in accordance with the principle of protection of experimental animals. To establish animal model of NSCLC, 0.2 mL of H460 cells with concentration density about 1.0 × 10^7/mL were inoculated to the left axilla of the mice. The volume of tumors was measured and recorded using a vernier caliper.
When the average tumor volume of nude mice inoculated with H460 cells grown to about 100 mm^3, the mice were randomly divided into […] (n = 6) including normal saline group (I, NS), CAR group (II, 0.75 mg·kg^−1), equivalent PEG-CAR-C16 group (IV, 5.5 mg·kg^−1), CAR group (III, 1.5 mg·kg^−1), equivalent PEG-CAR-C16 group (V, 11.0 mg·kg^−1). The mice in each group were given drugs by tail vein injection twice a week for two weeks. The volume of tumor was measured every two days and calculated according to the long diameter a and the short diameter b. The tumor inhibition rate is expressed as follows: tumor volume (Vt)=a×b^2/2.

H460 cells = test: MTT cytotoxicity, H460 cells; type: cell-based; conditions: 500 μM, 72 h
Description: The NSCLC A549 and H460 cells were incubated in 1640 medium containing 10% fetal bovine serum albumin, and these cells were stored in a humidified environment of 37 °C and 5% carbon dioxide.
In order to investigate the cytotoxicity of PEG-CAR-C16 micelles, the cell inhibition rates of A549 and H460 cells were determined by the MTT. Primarily, A549 and H460 cell lines were respectively cultured in 1640 culture medium, then transferred into a 96-well plate and incubated for 24 h under the condition of 37 °C, 5% CO2. Then, CAR and PEG-CAR-C16 micelles solution with different concentrations (15–500 μM) were added into the 96-well plate and incubated for 24, 48, and 72 h, respectively. After added with 10 μL of MTT solution to each well, the cells were incubated at 37 °C for 4 h again. Finally, the solution was removed, 100 μL of DMSO was then added to dissolve the produced formazan crystals and the […] were recorded by microplate reader. The cytotoxicity of PEG-CAR-C16 micelles could be expressed by cell inhibition rate.

N.N.O=C([O-])C1(C(=O)[O-])CCC1.[Pt+2] [CAR, Carboplatin]
AUC0–∞ [1]: 4.84 ± 1.58 mg·L^–1·h
CL [1]: 0.57 ± 0.11 L·h^–1·kg^–1
MRT0–∞ [1]: 4.72 ± 0.91 h
Vd [1]: 0.66 ± 0.15 L·kg^–1
t1/2 [1]: 1.90 ± 1.91 h
tumor volume growth / tumor inhibition effect (H460 tumor): could control the growth of tumor volume effectively
cell viability rate (H460 cells): 51.6%

Source: article PMC8238065, “Prodrug-based nano-delivery strategy to improve the antitumor ability of carboplatin in vivo and in vitro” (Drug Delivery, 2021)
